# Data as given in paper PMC9888480, “Carboranyl-1,8-naphthalimide intercalators induce lysosomal membrane permeabilization and ferroptosis in cancer cell lines” (Journal of Enzyme Inhibition and Medicinal Chemistry, 2023).
# How the values were obtained:
# [1] = tested on: relaxed pBR 322 plasmid DNA; assay: DNA unwinding assay, relaxed plasmid as substrate; assay type: binding; settings: 10 µM, in the presence of Topo I
# Description: Compounds that are able to intercalate into DNA or bind in the groove are involved in the local unwinding of the DNA, leading to a decrease in the twist number and an increase in the writhe number of the previously relaxed plasmid DNA used in the assay, resulting in a positively supercoiled DNA. If this DNA is then nicked by a topoisomerase, the enzyme will remove supercoils and relax the DNA, followed by religation. Upon removal of the compound and the enzyme by butanol extraction, the twist will increase, so the writhe will decrease, resulting in more negatively supercoiled DNA, which runs faster on agarose gel. […] This assay should be verified by performing a second reaction using a negatively supercoiled plasmid as a substrate to confirm that the compound is not simply acting as an inhibitor of the Topo I.
# The DNA Unwinding Assay Kit (Cat no. DUKSR001) was purchased from Inspiralis (Norwich, UK). […] After extraction, the aqueous layer was mixed with an equal volume of STEB buffer (40% (w/v) sucrose, Tris–HCl (100 mM, pH 8), EDTA (1 mM), bromophenol blue (0.5 mg/ml)), extracted with chloroform/isoamyl alcohol (24:1), and analysed on 1% agarose gel in TAE buffer at 70 V for 2 h, followed by ethidium bromide staining. […]
# [2] = tested on: HepG2 cells; assay: Mitochondrial membrane potential (MMP) measurement (JC-1); assay type: cell-based, human; settings: HepG2, 3-h treatment, 4.5 µM; 69.9% in control cells
# Method: The HepG2 cells were seeded at the density of 2 × 10^5 cells/well onto 12-well plates and cultured with EMEM at 37 °C under 5% CO2 saturation until 70–80% confluency was reached. […] After incubation, the cells were detached with trypsin (Corning®) and washed twice with 1 ml of DPBS (Capricorn), and alterations in ΔΨm were analysed using the MMP-sensitive cationic dye 5,5′,6,6′-tetrachloro-1,1′,3,3′-tetraethylbenzimidazolylcarbocyanine iodide (JC-1; Thermo Fisher Scientific), which can selectively enter mitochondria and change colour from red to green as the membrane potential decreases. The cells were stained with 2.5 µM JC-1 for 30 min at 37 °C in the dark. The maximum emission wavelengths of JC-1 monomers and “J-aggregates” were ∼ 525 (FL-1 channel) and ∼ 590 (FL-2 channel) nm, respectively. To create a strong, single positive green fluorescence signal, 3 µM FCCP was used. The mean fluorescence intensity representing the intracellular MMP level was analysed after incubation with the dye, with excitation at 488 nm using a FACSCalibur flow cytometer (Becton Dickinson), and the data were analysed using the FlowJo software (Becton Dickinson).
Substance,DNA intercalation (supercoiled DNA fraction from relaxed plasmid) [1],"MMP, JC-1 aggregates [2] [%]"
"4-[(6-[(1,7-Dicarba-closo-dodecaborane-1-yl)ethylamino]hexyl)amino]-3-nitro-N-[2-(N-pyrrolidinyl)ethyl]-1,8-naphthalimide [Compound 37]",strongest DNA intercalator,
"4-[(6-[(1,7-Dicarba-closo-dodecaborane-1-yl)ethylamino]hexyl)amino]-N-[2-(dimethylamino)ethyl]-3-nitro-1,8-naphthalimide [Compound 35]",,90.8
